Measurements taken from patent US6699970B2, “Mutacin I biosynthesis genes and proteins” (priority 2000, dated 2004).

Tests used:
Group A streptococci = experiment: antimicrobial spectrum assay; format: cell-based; settings: comparison of mutacin I and mutacin III
[1] = test system: gram-positive bacteria including the multidrug-resistant Staphylococci and Enterococci; experiment: spectrum of antimicrobial activity; format: cell-based
pneumococci = experiment: antimicrobial spectrum assay; format: cell-based; settings: comparison of mutacin I and mutacin III
enterococci = experiment: antimicrobial spectrum assay; format: cell-based; settings: comparison of mutacin I and mutacin III
[2] = reverse-phase HPLC analysis (hydrophobicity); format: physicochemical; settings: from acetonitrile concentration at elution
Text: For purification, the crude extract of mutacin I (SEQ ID No: 2) was applied to a Source 15RPC column and eluted with a fragmented gradient A (0.1% TFA) and B (0.085% TFA in 60% acetonitrile) using a LKB Purifier (Amersham Pharmacia Biotech, Piscataway, N.J.). The active fractions were pooled and dried in a lyophilizer. The pellet was redissolved in 0.25% TFA and subjected to a second round purification using a fragmented gradient of buffer A (0.1% TFA) and B (0.085% TFA in 80% methanol). The single active peak fraction was collected, dried in a lyophilizer, and used for sequence analysis and electrospray ionization mass spectrometry (EIMS).

**Q.** Which results are given for “mutacin I: lantibiotic from Streptococcus mutans CH43, twenty-four amino acids in its mature form, approximately 2364 Da (FSSLSLCSLGCTGVKNPSFNSYCC)”?
**A.** antimicrobial activity (Group A streptococci): equal activities; resistance of sensitive bacteria [1]: resistance to mutacin has not been observed; spectrum of antimicrobial activity [1]: wide spectrum of antimicrobial activity; pH range of activity: works in a wide range of pH; antimicrobial activity (pneumococci): equal activities; antimicrobial activity (enterococci): equal activities; hydrophobicity [2]: more hydrophobic than mutacin III
